Experimental data taken from US10456441B2, “Augmenting the immune response by promoting cell death of immune cells” (The University of Vermont and State Agricultural College, priority 2014, dated 2019).
Where a SMILES comes first, the peptide text is derived from it. The star is where a group is joined. Cbz = O=C(OCc1ccccc1)*; CH2F = FC*

Key:
BMDC = assay: Cytokine production by Borrelia-stimulated BMDC (Bio-Plex); assay type: cell-based, mice; settings: zVAD, 20 h
Procedure: The preparation of bone marrow-derived dendritic cells (BMDC) was done according to the method of Lutz et al. (26) using GM-CSF ([…] PeproTech, Rocky Hill N.J.) or GM-CSF plus IL-4 (10 μg/ml, PeproTech). Cells were used on day 7.
Day 7 γδ T cells and BMDC were cultured either individually or together at a 1:1 ratio (10^6 cells/ml each). To some cultures the following reagents were added: a sonicate of Borrelia burgdorferi (10 μg/ml), zVAD-fmk (MP Biomedical, Santa Ana Calif.) at the doses indicated, necrostatin (50 μM, R&D Systems, Minneapolis, Minn.), anti-TNF-α (10 μg/ml, Calbiochem, Darnstadt, Germany),, anti-IL-1 Receptor antagonist, Anakinra (200 ng/ml, Amgen, Thousand Oaks, Calif.), anti-IL-12 (10 μg/ml, BioLegend San Diego, Calif.), anti-IL-18 (10 μg/ml, MBL, Woburn Mass.), or rat IgG (10 μg/ml Jackson Immunoresearch, West Grove Pa.). Transwell assays were performed using 1×10^6 γδ T cells in 1 ml of complete medium+IL-2 placed in the lower chamber, with 5×10^5 DC in 100 μl placed in the upper chamber. […]
Cytokine levels of IFN-γ, IL-1β, IL-12p40, IL-12p70, IL-17, and TNF-α were detected using the Bio-Plex, MilliPlex, or Luminex immunoassay (Bio-Rad; Millipore-EMD; R&D Systems, Minneapolis, Minn.) according to the manufacturer's protocol. Briefly, samples were run undiluted or diluted 1:10 in RPMI complete media. 50 μl of the magnetic bead working solution was added to each well, then 50 μl of appropriate samples or standards were then added to wells and incubated at room temperature for 30-120 min at 800 rpm on an IKA MS 3 digital shaker. After three washes with 100 μl Bio-Plex wash buffer, incubation with 25 μl of detection antibody solution was done at room temperature for 30-60 min on the shaker. Following another set of three washes, 50 μl of streptavidin-phycoerythrin (PE) in assay buffer was added to each well and incubated as described for the previous step. After an additional three washes, 125 μl of assay buffer was added. Sample data was analyzed with Bio-Plex Manager software.

human DC = assay: Cell death of human DC from peripheral blood monocytes; assay type: cell-based; settings: human DC cultured with GM-CSF, zVAD at doses very similar to murine DC, 20 h
Procedure: Human monocytes were obtained as […] cells by magnetic bead purification (Miltenyi Biotech, Auburn, Calif.) from peripheral blood of healthy volunteers. Myeloid DC were prepared by culture of monocytes in AIM V media plus 10% fetal calf serum (HyClone) with 800 U/ml of granulocyte-macrophage colony-stimulating factor (GM-CSF), (BioLegend, San Diego, Calif.) without or with 500 U/ml IL-4 (BioLegend). Cell death was examined by terminal deoxynucleotidyl transferase dUTP nick end labeling (TUNEL). Briefly, cells were stained for expression of cell surface molecules, and then fixed with 1% methanol-free formaldehyde followed by 70% ethanol. After washing, the TUNEL reaction was performed by incubating cells in 50 μl of reaction mix containing 10 units of terminal deoxribosyl transferase (TdT), 2.5 mM cobalt chloride in 1× TdT buffer, and 0.2 pmol/μl of FITC-dUTP (Roche, Indianapolis, Ind.) at 37° C. for 1 hour. The cells were washed twice and fixed in 1% methanol-free formaldehyde. Murine thymocytes were included as a positive control for apoptotic cells. Flow cytometry was performed on an LSRII (BD Biosciences, San Jose, Calif.) calibrated with compensation beads (BD Biosciences). Analysis was performed using FlowJo software (Tree Star, Inc., Ashland, Oreg.).

[1] = test system: human synovial Vδ1 clone Bb15; assay: Human synovial γδ T cell clone Bb15 cultured with human DC and B. burgdorferi; assay type: cell-based; settings: Borrelia plus zVAD-treated (50 μM) DC cultured with GM-CSF alone
Procedure: γδ T cell clones were derived from synovial fluid T cells stimulated with B. burgdorferi sonicate (10 μg/ml) and then cloned at limiting dilution as previously described (8). All clones are of the Vδ1 subset by antibody staining and DNA sequencing (8). Clones were restimulated every 10-14 days in the presence of irradiated peripheral blood lymphocytes (3×10^5/well), human recombinant IL-2 (10 U/ml), and 10 μg/ml of B. burgdorferi.
Human monocytes were obtained as […] cells by magnetic bead purification (Miltenyi Biotech, Auburn, Calif.) from peripheral blood of healthy volunteers. Myeloid DC were prepared by culture of monocytes in AIM V media plus 10% fetal calf serum (HyClone) with 800 U/ml of granulocyte-macrophage colony-stimulating factor (GM-CSF), (BioLegend, San Diego, Calif.) without or with 500 U/ml IL-4 (BioLegend).

Compound: CC(C)[C@H](NC(=O)OCc1ccccc1)C(=O)N[C@@H](C)C(=O)N[C@@H](CC(=O)O)C(=O)CF [zVAD, N-benzyloxycarbonyl-Val-Ala-Asp-fluoromethyl ketone] (Cbz-Val-Ala-Asp-CH2F)
- BMDC production of IL-1β (BMDC): completely inhibited
- BMDC production of TNF-α (BMDC): augmented
- production of IL-12 p40 by BMDC (BMDC): partially inhibited
- production of IL-12 p70 by BMDC (BMDC): partially inhibited
- death of human DC (human DC): highly susceptible to death
- IFN-γ production by clone Bb15 [1]: increased IFN-γ production
